{"source": "patent US20260048145A1", "about": "“COMPOSITIONS AND METHODS FOR TREATING DRUG ADDICTION” (The Children's Medical Center Corporation, priority 2022, published 2026)", "key": {"[1]": {"molecular_target": "T1, NK3R (Mus musculus, UniProt P47937)", "T1 construct": "from tissue; host or cells: whole living mice (in vivo behavioural tests)", "T1 sequence (P47937 1-452)": "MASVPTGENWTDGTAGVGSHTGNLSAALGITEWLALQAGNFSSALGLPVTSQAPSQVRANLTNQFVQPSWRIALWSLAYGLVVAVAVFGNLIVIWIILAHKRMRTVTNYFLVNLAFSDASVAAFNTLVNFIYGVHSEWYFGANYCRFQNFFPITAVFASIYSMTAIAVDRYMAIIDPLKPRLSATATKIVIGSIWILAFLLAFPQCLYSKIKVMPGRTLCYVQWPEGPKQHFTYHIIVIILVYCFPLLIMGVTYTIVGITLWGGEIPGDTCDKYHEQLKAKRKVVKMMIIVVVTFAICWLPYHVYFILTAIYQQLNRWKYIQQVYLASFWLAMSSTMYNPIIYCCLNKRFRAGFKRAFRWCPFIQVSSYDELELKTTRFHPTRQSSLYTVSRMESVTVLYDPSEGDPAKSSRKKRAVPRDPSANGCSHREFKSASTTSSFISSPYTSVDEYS", "test": "Cocaine-CPP with systemic injection of senktide", "type": "in vivo, mice", "conditions": "systemic injection of senktide vs saline; CPP score", "procedure": "(§1) FIGS. 12A-12B show systemic injection of a TacR3 agonist, senktide, reduced cocaine-conditioned place preference and cocaine-induced locomotion. […] The CPP scores were calculated by subtracting the time spent in pre-conditioning phase from the time spent in post-conditioning phase, *, […], unpaired t-test.\nA two-compartment CPP chamber was used with one compartment with grid rod style floor and the other with mesh style floor (Med Associates). Chamber size is 25×19×17 cm (L×D×H). Mice trajectories were tracked by infra-red photobeam detectors, and the travel distance and the duration the mice spent in the two compartments were recorded. The CPP protocol consists of three sessions that include pre-conditioning, conditioning, and post-conditioning.\nThe Tac2 gene encodes the neuropeptide neurokinin B (NKB). NKB has high affinity for neurokinin 3 receptor (NK3R, encoded by the TacR3 gene). The NKB-NK3R (ligand-receptor) signal pathway is functional in both central and peripheral nervous systems and have been implicated in diverse physiological processes, such as reproduction, inflammation, and psychiatric disorders^55. To evaluate the functional relevance of the NKB-NK3R pathway in addiction, an NK3R agonist, senktide, was systemically administered to mice, and then addiction-related behavioral tests were performed. […]"}, "[2]": {"molecular_target": "T1, NK3R", "test": "Cocaine-induced locomotion assay with i.p. injection of senktide", "type": "in vivo, mice", "conditions": "i.p. injection of senktide vs saline; distance traveled in 30-minute post-treatment period", "procedure": "as §1\nThe basal level of locomotion as well as cocaine-induced change of locomotor activity were assessed in the open field arena the same as the OFT. For chemogenetics experiments, 20 minutes after administration of either saline or CNO, mice were individually placed in the center of the test chamber, triggering the infra-red tracking system to record locomotor activity, as measured by the number of beam breaks. For optogenetic experiments, the total duration of the behavioral test was 30 minutes, which was divided into […] 5×6-min epochs (with 3-minutes laser on. 3-minutes laser off, respectively). Different groups of mice were balanced across the 8 chambers to avoid potential environmental bias.\nThe Tac2 gene encodes the neuropeptide neurokinin B (NKB). NKB has high affinity for neurokinin 3 receptor (NK3R, encoded by the TacR3 gene). The NKB-NK3R (ligand-receptor) signal pathway is functional in both central and peripheral nervous systems and have been implicated in diverse physiological processes, such as reproduction, inflammation, and psychiatric disorders^55. […]"}}, "note": "Numbered stars: 1 amine (or outer) side, 2 acyl side, 3 side chain; on linkers, the order of the positions; unused ones are H or OH. Square brackets hold non-standard residues; d marks the D form. Peptide text beside a SMILES is read from it. NMeF = CN[C@@H](Cc1ccccc1)C(=O)O; Suc = O=C(CCC(=O)[*:2])[*:1]", "data": [{"smiles": "CSCC[C@H](NC(=O)[C@H](CC(C)C)NC(=O)CNC(=O)[C@H](Cc1ccccc1)N(C)C(=O)[C@H](Cc1ccccc1)NC(=O)[C@H](CC(=O)O)NC(=O)CCC(=O)O)C(N)=O", "note": "[senktide, Suc-Asp-Phe-(Me-Phe)-Gly-Leu-Met] (Suc-DF[NMeF]GLM-NH2)", "values": [{"measurement": "cocaine-conditioned place preference", "setting": "[1]", "result": "reduced"}, {"measurement": "cocaine-induced locomotion", "setting": "[2]", "result": "reduced"}]}]}
